Measured values published in BindingDB's records for doi:10.1021/jm9903242 (Agouron Pharmaceuticals, 2000).

Experiment: Antiviral activity using H1HeLa cells (ATCC) infected with HRV-14

| SMILES | EC50 [µM] |
| --- | --- |
| NC(=O)c1cccc(/C=C/C(=O)OCCO)c1 [3-(3-Carbamoyl-phenyl)-acrylic acid 2-hydroxy-ethyl ester] | 20 |
| COC(=O)/C=C/c1cccc(C(N)=O)c1 [3-(3-Carbamoyl-phenyl)-acrylic acid methyl ester] | 150 |
| CCOC(=O)/C=C/c1cc(O)cc(C(N)=O)c1 [3-(3-Carbamoyl-5-hydroxy-phenyl)-acrylic acid ethyl ester] | > 100 |
| NC(=O)c1cccc(/C=C/C(=O)c2ccccn2)c1 [3-(3-Oxo-3-pyridin-2-yl-propenyl)-benzamide] | 50 |
| CCOC(=O)/C=C/c1cc(CN2CCN(c3ncccn3)CC2)cc(C(N)=O)c1 [3-[3-Carbamoyl-5-(4-pyrimidin-2-yl-piperazin-1-ylmethyl)-phenyl]-acrylic acid ethyl ester] | 1 |
| NC(=O)c1cccc(/C=C/C(=O)OCCc2ccccc2)c1 [3-(3-Carbamoyl-phenyl)-acrylic acid phenethyl ester] | 100 |
| CCOC(=O)/C=C/c1cc(CN2CCN(C(=O)OCC)CC2)cc(C(N)=O)c1 [4-[3-Carbamoyl-5-(2-ethoxycarbonyl-vinyl)-benzyl]-piperazine-1-carboxylic acid ethyl ester] | 1.8 |
| CCOC(=O)/C(C#N)=C/c1cccc(C(N)=O)c1 [3-(3-Carbamoyl-phenyl)-2-cyano-acrylic acid ethyl ester] | > 100 |
| NC(=O)c1cccc(/C=C/C(=O)OCc2ccccc2)c1 [3-(3-Carbamoyl-phenyl)-acrylic acid benzyl ester] | 5.6 |

Continued, values first:

| EC50 [µM] | SMILES |
| --- | --- |
| > 20 | NC(=O)c1ccc2c(c1)C=CC2=O [1-Oxo-1H-indene-5-carboxylic acid amide] |
| > 71 | NC(=O)c1cccc(/C=C/C(=O)c2ccco2)c1 [3-(3-Furan-2-yl-3-oxo-propenyl)-benzamide] |
| 5.6 | CCOC(=O)/C=C/c1cc(CSc2nnc(-c3ccccn3)o2)cc(C(N)=O)c1 [3-[3-Carbamoyl-5-(5-pyridin-2-yl-[1,3,4]oxadiazol-2-ylsulfanylmethyl)-phenyl]-acrylic acid ethyl ester] |
| 32 | CC(=O)C=Cc1cccc(C(N)=O)c1 [3-(3-Oxo-but-1-enyl)-benzamide] |
| > 320 | CCOC(=O)/C=C/c1ccc(OCc2ccccc2)c(C(N)=O)c1 [3-(4-Benzyloxy-3-carbamoyl-phenyl)-acrylic acid ethyl ester] |
| 2.5 | CCOC(=O)/C=C/c1cc(CN2CCN(c3ccccn3)CC2)cc(C(N)=O)c1 [3-[3-Carbamoyl-5-(4-pyridin-2-yl-piperazin-1-ylmethyl)-phenyl]-acrylic acid ethyl ester] |
| 15.9 | CCOC(=O)/C=C/c1cccc(C(N)=O)c1 [3-(3-Carbamoyl-phenyl)-acrylic acid ethyl ester] |
| > 100 | CCOC(=O)/C=C/c1cc(C(N)=O)ccc1C [3-(5-Carbamoyl-2-methyl-phenyl)-acrylic acid ethyl ester] |
| > 100 | CCOC(=O)/C=C/c1cc(CO)cc(C(N)=O)c1 [3-(3-Carbamoyl-5-hydroxymethyl-phenyl)-acrylic acid ethyl ester] |
| 28 | NC(=O)c1cccc(/C=C/C(=O)c2ccccc2)c1 [3-(3-Oxo-3-phenyl-propenyl)-benzamide] |
| 5.8 | CCOC(=O)/C=C/c1cc(CN(CC)Cc2ccncc2)cc(C(N)=O)c1 [3-{3-Carbamoyl-5-[(ethyl-pyridin-4-ylmethyl-amino)-methyl]-phenyl}-acrylic acid ethyl ester] |
| 0.6 | CCOC(=O)/C=C/c1cc(CN2CCN(c3ccccc3C#N)CC2)cc(C(N)=O)c1 [3-{3-Carbamoyl-5-[4-(2-cyano-phenyl)-piperazin-1-ylmethyl]-phenyl}-acrylic acid ethyl ester] |
| > 15 | CN(C)c1ccc(C(=O)/C=C/c2cccc(C(N)=O)c2)cc1 [3-[3-(4-Dimethylamino-phenyl)-3-oxo-propenyl]-benzamide] |
| > 22 | COc1ccc(C(=O)/C=C/c2cccc(C(N)=O)c2)cc1 [3-[3-(4-Methoxy-phenyl)-3-oxo-propenyl]-benzamide] |
